US9643960B2, “Procaspase activating compounds” (The Board of Trustees of the University of Illinois, priority 2009, dated 2017)
Where two headings read alike, the source gives them in different places.

Assays:
[1] = test system: U937 human lymphoma cells; assay: Cell death assay in U937 cells (sulforhodamine B, 72 h); type: cell-based
Method: To each well was added 2 μL of 100× compound stock solutions in DMSO at varying concentrations so that the cells were treated with concentrations between 0 μM and 100 μM compound. Each concentration was tested in quintuplicate. In each plate 5 wells received 10 μM etoposide as a positive control and 5 wells received 2 μL of DMSO as a negative control. […] 1 Specifically, to each well of the plate was added 50 μL of an 80% (w/v) solution of TCA in H2O and the plates were allowed to rest at 4° C. overnight. The plates were then washed gently with a steam of H2O five times to remove the excess TCA and precipitated serum proteins. […] After staining, the wells were gently washed 5 times with 100 μL of 1% (v/v) acetic acid to remove the unbound dye. The plates were then allowed to air dry. […] The OD was then read at 510 nm in a Molecular Dynamics plate reader and the percent cell death calculated and normalized to the positive control (100% cell death) and the negative control (0% cell death). The percent cell death was averaged for each compound concentration and plotted as a function of compound concentration. The data were fit to a logistical dose response curve using Table curve 2D and the IC50 value was calculated. The experiment was repeated three times and the average of the calculated IC50 values was reported. The standard error of the mean (SEM) was determined and reported for the triplicate experiments.
U-937 cells grow in culture as a suspension.

[2] = biological target: T1, caspase-3 (Homo sapiens, UniProt P42574); assay: Caspase-3 activity assay (relief of zinc mediated inhibition); type: biochemical; conditions: for activation at 10 µM: 10 μM compound, 2.5 μM zinc
T1 construct: Active caspase-3 is a homodimer of heterodimers and is produced by proteolysis of procaspase-3; 6xHis (C); made in house; host or cells: Escherichia coli BL21(DE3), plasmid pHC332
T1 sequence (P42574 29-175 limits assumed): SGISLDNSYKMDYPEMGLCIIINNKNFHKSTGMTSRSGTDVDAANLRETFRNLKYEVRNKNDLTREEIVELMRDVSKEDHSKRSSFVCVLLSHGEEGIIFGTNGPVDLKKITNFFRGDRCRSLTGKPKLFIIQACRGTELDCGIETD
T1 sequence (P42574 176-277 limits assumed): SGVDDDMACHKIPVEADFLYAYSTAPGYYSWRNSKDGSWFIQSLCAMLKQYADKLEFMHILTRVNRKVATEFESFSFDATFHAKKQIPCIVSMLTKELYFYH
Method: Caspase-3 Activity Assays—Zinc-free stocks (2×) of caspase-3 (1 μM) were prepared in Caspase Activity Buffer. Compound stock solutions were made (2×) at various concentrations from 200 μM to 200 nM in Caspase Activity Buffer. […] The plates were incubated at room temperature for 30 minutes. […] The data for each compound concentration (4 wells) was averaged and the percent activity was plotted as a function of compound concentration. The data was analyzed using Table Curve 2D and fitted to a logistical dose-response curve. […] The percent activity at 10 μM was determined for each compound and reported as an average of the three replicate experiments with the corresponding SEM.

[3] = test system: SK-MEL-5 cells; assay: Live cell confocal imaging, colocalization with caspase-3/-7 activity; type: cell-based, human; conditions: 25 μM with FAM-DEVD-fmk
Method: Live Cell Imaging—SK-Mel-5 cells were grown on the bottom of no. 1 borosilicate growth chambers (Nunc) to a confluency of […]. Cells were then treated with DMSO, 25 μM FAM-DEVD-fmk in DMSO, 25 μM AF350-PAC-1 in DMSO, or both 25 μM FAM-DEVD-fmk and 25 μM AF350-PAC-1 concurrently for 1 hour at 37° C. and 5% CO2. Cells were then washed 5 times with RPMI 1640 growth media lacking phenol red. The cells were then allowed to further incubate at 37° C. for 2 hours before imaging. For cells stained with SYBR green for nuclear staining, a 1:100,000 dilution of SYBR green in media was added immediately prior to imaging. Cells were imaged on a Leica SP2 Multiphoton Confocal microscope.

[4] = EGTA fluorescence titration assay (zinc binding); conditions: read-out: Zinc Binding (KD) nM
[5] = Solubility in β-cyclodextran; type: physicochemical
[6] = biological target: T2, procaspase-3(D9A/D28A/D175A) mutant (Homo sapiens, UniProt P42574, D175A/D28A/D9A); assay: Procaspase-3 D3A mutant activity in the presence of zinc; type: biochemical; conditions: 10 μM zinc, S-PAC-1 added, monitored at 15 minute intervals
T2 construct: 6xHis (C); made in house; host or cells: Escherichia coli BL21(DE3) (printed for procaspase-3 in general, not for the mutant by name)
T2 sequence (P42574 1-277 D9A/D28A/D175A): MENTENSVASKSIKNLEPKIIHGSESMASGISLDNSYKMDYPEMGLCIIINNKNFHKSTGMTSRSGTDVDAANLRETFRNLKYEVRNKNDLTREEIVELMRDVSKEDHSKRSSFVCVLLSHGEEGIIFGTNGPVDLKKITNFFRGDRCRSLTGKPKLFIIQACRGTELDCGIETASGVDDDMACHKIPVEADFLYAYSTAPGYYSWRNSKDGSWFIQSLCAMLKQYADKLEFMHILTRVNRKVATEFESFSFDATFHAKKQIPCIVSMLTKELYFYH
From the text: Zinc ions are known to inhibit procaspase-3. […] The effect of a range of concentrations of zinc on caspase-3 and procaspase-3 enzymatic activity was examined. All buffers were first treated with Chelex® resin to remove any trace metal contaminants. […] To ensure that the activity of the proenzyme was being monitored, a proteolytically uncleavable mutant of procaspase-3 (in which the three aspartic acid cleavage site residues are mutated to alanine (D9A/D28A/D175A)) was used (24,32).

[7] = Pharmacokinetics of S-PAC-1 i.p. in mice; type: in vivo, mouse; conditions: C57/BL6 mice, 125 mg/kg i.p.
From the text: Mice were sacrificed and blood drawn at varying time points after administration. Blood samples were centrifuged and the serum was collected and analyzed by liquid chromatography to determine drug concentration.

[8] = Continuous-rate infusion pharmacokinetics in healthy research dogs; type: in vivo; conditions: hound, dog, plasma, continuous intravenous infusion, read-out: steady state plasma concentration
Method: Each dog received an initial loading dose via i.v. infusion over the course of 10 minutes followed by a maintenance dosage delivered by an infusion pump for an additional 24 hours.

[9] = Pharmacokinetics of S-PAC-1 in lymphoma bearing dogs; type: in vivo, dog; conditions: continuous infusion
From the text: In addition, blood was collected from all pet dogs at each scheduled follow up visit to characterize hematologic and non-hematologic toxicity. Between administrations, patients were monitored by pet owners for gastrointestinal toxicity observational scores adhering the Veterinary Co-operative oncology group common terminology and criteria for adverse events (VCOG_CTCAE) (44).

[10] = test system: mice; conditions: cited from earlier work
[11] = Homo sapiens, U-937, 72 h, 72 h exposure, sulforhodamine B assay, read-out: U937 (IC50 μM)
[12] = Homo sapiens, U-937, 72 h, read-out: U937 (IC50 μM), 72 h exposure, sulforhodamine B assay

| Structure (SMILES) | IC50 [1, 11] | activation at 10 µM [2] | Kd [4] | also measured |
| --- | --- | --- | --- | --- |
| C=CCc1cccc(/C=N/NC(=O)CN2CCN(Cc3cccc(Cn4cc(CNC(=O)Cc5c(C)c6cc(S(=O)(=O)O)c(N)cc6oc5=O)nn4)c3)CC2)c1O [AF-PAC-1] | 14.8 µM | 6.3% | 61 nM | activation at 50 µM ([2]; 50 μM compound): 20%; colocalization with sites of caspase-3/-7 enzymatic activity [3]: good colocalization |
| C=CCc1cc(/C=N/NC(=O)CN2CCN(Cc3ccccc3)CC2)c(O)c(CC=C)c1 [PAC-1-I-10] | – | – | – | IC50 [1, 12]: 1.8 ± 0.4 µM; IC50 ([1]; read-out: U937 (IC50 μM), 72 h exposure, sulforhodamine B assay): 1.6 ± 0.4 µM |
| C=CCc1cccc(/C=N/NC(=O)CN2CCN(Cc3ccccn3)CC2)c1O [PAC-1-II-1] | 9.5 ± 1.8 µM | 48 ± 3% | 76 nM | – |
| C=CCc1cccc(/C=N/NC(=O)CN2CCN(Cc3ccc(F)cc3)CC2)c1O [PAC-1-II-4] | 2 ± 0.2 µM | 24.2 ± 1.7% | 96 nM | – |
| C=CCc1cccc(/C=N/NC(=O)CN2CCN(Cc3cc(OC)ccc3OC)CC2)c1O [PAC-1-II-5] | 1 ± 0.1 µM | 31 ± 3.6% | 36 nM | Solubility in β-Cyclodextran (mg β-CD/μmol Compound) [5]: 15.2 mg β-CD/μmol Compound |
| C=CCc1cccc(/C=N/NC(=O)CN2CCN(Cc3ccc(OC)cc3)CC2)c1O [PAC-1-II-6] | 2.7 ± 0.8 µM | 24 ± 3.4% | 41 nM | Solubility in β-Cyclodextran (mg β-CD/μmol Compound) [5]: 7.1 mg β-CD/μmol Compound |
| C=CCc1cccc(/C=N/NC(=O)CN2CCN(Cc3cccc([N+](=O)[O-])c3)CC2)c1O [PAC-1-II-7] | 4.6 ± 1 µM | – | – | Solubility in β-Cyclodextran (mg β-CD/μmol Compound) [5]: 4.0 mg β-CD/μmol Compound |
| C=CCc1cccc(/C=N/NC(=O)CN2CCN(Cc3cccc(C(=O)O)c3)CC2)c1O [PAC-1-II-8] | 2.3 µM | – | – | Solubility in β-Cyclodextran (mg β-CD/μmol Compound) [5]: 5.6 mg β-CD/μmol Compound |
| COc1ccc(OC)c(CN2CCN(CC(=O)N/N=C/c3ccccc3O)CC2)c1 [PAC-1-III-1] | – | – | – | IC50 [1, 12]: 12 ± 2 µM |
| COc1cccc(/C=N/NC(=O)CN2CCN(Cc3cc(OC)c(OC)c(OC)c3)CC2)c1O [PAC-1-III-2] | 27 ± 9.4 µM | – | – | – |
| COc1cc(O)c(/C=N/NC(=O)CN2CCN(Cc3cc(OC)c(OC)c(OC)c3)CC2)c(OC)c1 [PAC-1-III-3] | 38 ± 6.2 µM | – | – | – |
| COc1ccc(OC)c(CN2CCN(CC(=O)N/N=C/c3c(O)cc(OC)cc3OC)CC2)c1 [PAC-1-III-4] | 17.5 µM | – | – | – |
| COc1cccc(/C=N/NC(=O)CN2CCN(Cc3ccccc3CS(=O)(=O)c3ccccc3)CC2)c1O [PAC-1-III-5] | 8.4 ± 1.6 µM | – | – | – |
| COc1cc(O)c(/C=N/NC(=O)CN2CCN(Cc3ccccc3CS(=O)(=O)c3ccccc3)CC2)c(OC)c1 [PAC-1-III-6] | 5.5 ± 1.5 µM | – | – | – |
| C=CCc1cccc(/C=N/NC(=O)CN2CCC(Cc3ccccc3)CC2)c1O [PAC-1-IV-3] | 2.7 ± 1.1 µM | 36 ± 3% | 50 nM | – |
| O=C(CN1CCN(Cc2ccccc2)CC1)NCCc1ccccc1O [PAC-1-IV-6] | > 100 µM | 4.1 ± 1% | – | – |
| O=C(CN1CCN(Cc2ccccc2)CC1)NCc1ccccc1O [PAC-1-IV-7] | > 100 µM | 4.4 ± 0.9% | – | – |
| C=CCc1cccc(/C=N/NC(=O)CN2CCN(Cc3ccc(S(N)(=O)=O)cc3)CC2)c1O [S-PAC-1, (E)-4-((4-(2-(2-(3-allyl-2-hydroxybenzylidene)hydrazinyl)-2-oxoethyl)piperazin-1-yl)methyl)benzenesulfonamide] | – | – | – | Solubility in β-Cyclodextran (mg β-CD/μmol Compound) [5]: 3.5 mg β-CD/μmol Compound; enzymatic activity of uncleavable procaspase-3 (D3A) [6]: rapidly (within 5 minutes) enhances the enzymatic activity of the proenzyme; S-PAC-1 in the blood at 4 hours post injection [7]: no S-PAC-1 remaining in the blood; concentration at 24 h [8]: ~15 µM; time to steady state from beginning of infusion [9]: ≤ 6 h |
| c1ccc(CN(CCN(Cc2ccccn2)Cc2ccccn2)Cc2ccccn2)nc1 [TPEN, N,N,N′,N′-tetrakis (2-pyridylmethyl)ethylenediamine] | – | – | – | Neurotoxicity [10]: severe neurotoxicity in mice at low concentrations and rapid death at higher concentrations |
| C=CCc1cccc(/C=N/NC(=O)CN2CCN(Cc3cccc(Cn4cc(CNC(=O)Cc5c(C)c6cc(S(=O)(=O)O)c(N)cc6oc5=O)nn4)c3)CC2)c1O [drawing 79] | – | – | – | IC50 ([1]; 72 h exposure, sulforhodamine B assay, read-out: U937 (IC50 μM)): 10.7 µM |
